In ChEMBL document CHEMBL3044761, “Lethal Activity of a Trehalase Inhibitor, Validoxylamine A, against Mamestra brassicae and Spodoptera litura” (J Pestic Sci, 1994):

Key:
[1] = tested on: Mamestra brassicae; assay: Insecticidal activity against last-instar Mamestra brassicae larvae assessed as mortality; assay type: functional
[2] = tested on: Spodoptera litura; assay: Insecticidal activity against last-instar Spodoptera litura larvae assessed as larval pupal intermediate injected at 10 ug/larvae (reference value: […]); assay type: functional
[3] = tested on: Spodoptera litura; assay: Insecticidal activity against last-instar Spodoptera litura larvae assessed as larval pupal intermediate injected at 2 ug/larvae (reference value: […]); assay type: functional
[4] = tested on: Spodoptera litura; assay: Insecticidal activity against last-instar Spodoptera litura larvae assessed as larval pupal intermediate injected at 0.4 ug/larvae (reference value: […]); assay type: functional
[5] = tested on: Spodoptera litura; assay: Insecticidal activity against last-instar Spodoptera litura larvae assessed as partial pupation injected at 50 ug/larvae (reference value: 100%); assay type: functional
[6] = tested on: Spodoptera litura; assay: Insecticidal activity against last-instar Spodoptera litura larvae assessed as partial pupation injected at 10 ug/larvae (reference value: […]); assay type: functional
[7] = tested on: Spodoptera litura; assay: Insecticidal activity against last-instar Spodoptera litura larvae assessed as partial pupation injected at 2 ug/larvae (reference value: 100%); assay type: functional
[8] = tested on: Spodoptera litura; assay: Insecticidal activity against last-instar Spodoptera litura larvae assessed as wing pad separation at 50 ug/larvae topical application (reference value: 100%); assay type: functional
[9] = tested on: Spodoptera litura; assay: Insecticidal activity against last-instar Spodoptera litura larvae assessed as wing pad separation injected at 10 ug/larvae (reference value: 100%); assay type: functional
[10] = tested on: Spodoptera litura; assay: Insecticidal activity against last-instar Spodoptera litura larvae assessed as wing pad separation injected at 0.4 ug/larvae (reference value: 100%); assay type: functional
[11] = tested on: Spodoptera litura; assay: Insecticidal activity against last-instar Spodoptera litura larvae assessed as normal pupae at 50 ug/larvae topical application (reference value: 100%); assay type: functional
[12] = tested on: Spodoptera litura; assay: Insecticidal activity against last-instar Spodoptera litura larvae assessed as normal pupae injected at 50 ug/larvae (reference value: 100%); assay type: functional
[13] = biological target: T1, Trehalase (Bombyx mori) (UniProt P32358); assay: Inhibition of Bombyx mori trehalase activity in arborescent region of colleterial glands at 1 ug/pupa
T1 sequence (whole entry): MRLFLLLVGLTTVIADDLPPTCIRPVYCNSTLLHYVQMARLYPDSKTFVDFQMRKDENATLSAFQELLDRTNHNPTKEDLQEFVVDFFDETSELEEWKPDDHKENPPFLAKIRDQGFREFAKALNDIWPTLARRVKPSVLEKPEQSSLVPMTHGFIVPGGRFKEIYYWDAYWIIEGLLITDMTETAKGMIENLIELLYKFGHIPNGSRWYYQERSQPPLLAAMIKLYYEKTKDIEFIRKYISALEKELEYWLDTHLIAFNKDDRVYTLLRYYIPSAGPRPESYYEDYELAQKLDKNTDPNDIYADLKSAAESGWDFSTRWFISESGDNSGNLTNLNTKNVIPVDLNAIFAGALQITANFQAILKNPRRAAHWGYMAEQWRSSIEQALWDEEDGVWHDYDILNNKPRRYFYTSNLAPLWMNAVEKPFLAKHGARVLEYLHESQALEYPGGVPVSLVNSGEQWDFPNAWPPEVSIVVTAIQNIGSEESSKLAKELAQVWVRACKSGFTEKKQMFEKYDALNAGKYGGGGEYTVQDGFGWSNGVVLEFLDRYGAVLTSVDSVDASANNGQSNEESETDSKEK

[14] = biological target: T2, Chitinase A1 (Thanatephorus cucumeris (strain AG1-IB / isolate 7/3/14) (Lettucebottom rot fungus) (Rhizoctonia solani), UniProt M5BZV0); assay: Inhibition of Rhizoctonia solani chitinase; details: read-out: I50
T2 sequence (M5BZV0 whole entry): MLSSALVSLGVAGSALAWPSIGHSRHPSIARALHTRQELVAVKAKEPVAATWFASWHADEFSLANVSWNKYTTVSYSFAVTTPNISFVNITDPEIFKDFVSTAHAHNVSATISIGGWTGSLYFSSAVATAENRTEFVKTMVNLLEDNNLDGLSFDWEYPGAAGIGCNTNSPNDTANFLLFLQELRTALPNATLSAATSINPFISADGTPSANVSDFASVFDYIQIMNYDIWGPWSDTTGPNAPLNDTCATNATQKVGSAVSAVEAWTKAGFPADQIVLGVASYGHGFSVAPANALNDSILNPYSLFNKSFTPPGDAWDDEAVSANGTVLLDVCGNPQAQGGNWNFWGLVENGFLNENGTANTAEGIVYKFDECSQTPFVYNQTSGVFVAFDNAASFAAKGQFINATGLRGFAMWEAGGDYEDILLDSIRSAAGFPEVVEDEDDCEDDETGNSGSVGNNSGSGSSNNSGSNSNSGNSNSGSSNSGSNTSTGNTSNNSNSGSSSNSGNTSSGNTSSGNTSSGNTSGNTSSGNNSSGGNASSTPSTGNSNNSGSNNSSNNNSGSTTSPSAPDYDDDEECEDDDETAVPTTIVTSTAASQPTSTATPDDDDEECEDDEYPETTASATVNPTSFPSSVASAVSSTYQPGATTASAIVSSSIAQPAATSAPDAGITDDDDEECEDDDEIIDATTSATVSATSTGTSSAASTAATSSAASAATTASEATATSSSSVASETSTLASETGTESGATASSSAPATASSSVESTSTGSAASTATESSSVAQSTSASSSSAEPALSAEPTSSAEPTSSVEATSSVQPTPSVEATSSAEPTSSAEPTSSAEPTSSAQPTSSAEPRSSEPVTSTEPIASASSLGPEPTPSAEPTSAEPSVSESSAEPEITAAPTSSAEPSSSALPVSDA

[15] = Inhibition of Rhizoctonia solani beta-glucosidase; details: read-out: I50
[16] = tested on: Mamestra brassicae; assay: Insecticidal activity against last-instar Mamestra brassicae larvae assessed as partial pupation injected at 10 ug/larvae (reference value: 10%); assay type: functional
[17] = tested on: Mamestra brassicae; assay: Insecticidal activity against last-instar Mamestra brassicae larvae assessed as partial pupation injected at 5 ug/larvae (reference value: 10%); assay type: functional
[18] = tested on: Mamestra brassicae; assay: Insecticidal activity against last-instar Mamestra brassicae larvae assessed as partial pupation injected at 1 ug/larvae (reference value: 10%); assay type: functional
[19] = tested on: Mamestra brassicae; assay: Insecticidal activity against last-instar Mamestra brassicae larvae assessed as wing pad separation at 50 ug/larvae topical application (reference value: 0%); assay type: functional
[20] = tested on: Mamestra brassicae; assay: Insecticidal activity against last-instar Mamestra brassicae larvae assessed as wing pad separation injected at 50 ug/larvae (reference value: 0%); assay type: functional
[21] = tested on: Mamestra brassicae; assay: Insecticidal activity against last-instar Mamestra brassicae larvae assessed as wing pad separation injected at 10 ug/larvae (reference value: 0%); assay type: functional
[22] = tested on: Mamestra brassicae; assay: Insecticidal activity against last-instar Mamestra brassicae larvae assessed as normal pupae injected at 10 ug/larvae (reference value: 90%); assay type: functional
[23] = tested on: Spodoptera litura; assay: Insecticidal activity against last-instar Spodoptera litura larvae assessed as normal pupae injected at 2 ug/larvae (reference value: 100%); assay type: functional
[24] = tested on: Spodoptera litura; assay: Insecticidal activity against last-instar Spodoptera litura larvae assessed as normal pupae injected at 0.4 ug/larvae (reference value: 100%); assay type: functional
[25] = tested on: Mamestra brassicae; assay: Insecticidal activity against last-instar Mamestra brassicae larvae assessed as larval-pupal intermediate at 50 ug/larvae oral administration (reference value: 0%); assay type: functional
[26] = tested on: Mamestra brassicae; assay: Insecticidal activity against last-instar Mamestra brassicae larvae assessed as larval-pupal intermediate injected at 10 ug/larvae (reference value: 0%); assay type: functional
[27] = tested on: Mamestra brassicae; assay: Insecticidal activity against last-instar Mamestra brassicae larvae assessed as larval-pupal intermediate injected at 1 ug/larvae (reference value: 0%); assay type: functional

SMILES: OCC1=C[C@H](N[C@H]2C[C@H](CO)[C@@H](O)[C@H](O)[C@H]2O)[C@H](O)[C@@H](O)[C@@H]1O [VALIDOXYLAMINE A]
- LD50 [1]: <1 µg
- Activity [2]: 25%
- Activity [3]: 15%
- Activity [4]: 0%
- Activity [5]: 30%
- Activity [6]: 40%
- Activity [7]: 20%
- Activity [8]: 5%
- Activity [9]: 15%
- Activity [10]: 5%
- Activity [11]: 85%
- Activity [12]: 0%
- inhibition [13]: 78%
- IC50 [14]: > 1000 µM
- IC50 [15]: > 1000 µM
- Activity [16]: 13%
- Activity [17]: 27%
- Activity [18]: 27%
- Activity [19]: 0%
- Activity [20]: 0%
- Activity [21]: 7%
- Activity [22]: 0%
- Activity [23]: 60%
- Activity [24]: 85%
- Activity [25]: 0%
- Activity [26]: 80%
- Activity [27]: 27%
